Patent US20060281700A1, “SYNERGISTIC MODULATION OF FLT3 KINASE USING AMINOPYRIMIDINES KINASE MODULATORS” (priority 2005, published 2006)

Molecular target: T1, wild-type FLT3 phosphorylation in Baf3 FLT3 cells (Homo sapiens, UniProt P36888)
T1 sequence (P36888 27-993): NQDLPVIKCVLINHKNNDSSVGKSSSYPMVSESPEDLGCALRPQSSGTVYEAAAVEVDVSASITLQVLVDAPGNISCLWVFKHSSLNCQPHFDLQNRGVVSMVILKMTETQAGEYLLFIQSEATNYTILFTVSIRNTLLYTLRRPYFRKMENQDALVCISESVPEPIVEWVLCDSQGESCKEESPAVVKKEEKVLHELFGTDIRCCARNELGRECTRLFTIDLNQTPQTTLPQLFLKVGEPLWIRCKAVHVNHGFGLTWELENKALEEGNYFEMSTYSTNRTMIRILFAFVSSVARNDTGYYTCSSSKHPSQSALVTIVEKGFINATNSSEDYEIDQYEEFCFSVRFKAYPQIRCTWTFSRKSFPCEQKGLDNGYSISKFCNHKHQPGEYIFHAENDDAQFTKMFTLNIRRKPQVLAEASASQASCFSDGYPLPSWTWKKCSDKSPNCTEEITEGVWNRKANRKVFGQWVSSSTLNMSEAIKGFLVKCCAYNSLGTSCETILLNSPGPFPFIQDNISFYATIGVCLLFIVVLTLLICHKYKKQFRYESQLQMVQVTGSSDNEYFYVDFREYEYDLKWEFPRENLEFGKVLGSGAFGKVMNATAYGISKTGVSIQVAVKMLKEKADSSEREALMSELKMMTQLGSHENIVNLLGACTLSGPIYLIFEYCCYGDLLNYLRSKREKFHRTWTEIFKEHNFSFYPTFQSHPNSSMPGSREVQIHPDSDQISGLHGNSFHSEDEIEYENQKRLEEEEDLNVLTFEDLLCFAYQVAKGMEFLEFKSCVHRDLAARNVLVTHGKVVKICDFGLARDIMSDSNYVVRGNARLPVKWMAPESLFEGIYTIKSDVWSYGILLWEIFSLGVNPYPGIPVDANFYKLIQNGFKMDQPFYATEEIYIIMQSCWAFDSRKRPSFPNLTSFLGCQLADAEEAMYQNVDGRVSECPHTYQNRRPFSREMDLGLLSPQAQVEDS
Test: Cell-Based FLT3 Receptor Elisa
Conditions: 1 hour compound, 100 ng/mL Flt ligand 10 min; uncertainty ±20%
Experimental: Cell-Based FLT3 Receptor Elisa
Specific cellular inhibition of FLT ligand-induced wild-type FLT3 phosphorylation was measured in the following manner: Baf3 FLT3 cells overexpressing the FLT3 receptor were obtained from Dr. Michael Heinrich (Oregon Health and Sciences University). The Baf3 FLT3 cell lines were created by stable transfection of parental Baf3 cells (a murine B cell lymphoma line dependent on the cytokine IL-3 for growth) with wild-type FLT3. Cells were selected for their ability to grow in the absence of IL-3 and in the presence of FLT3 ligand.
Baf3 cells were maintained in RPMI 1640 with 10% FBS, penn/strep and 10 ng/ml FLT ligand at 37° C., 5% CO2. To measure direct inhibition of the wild-type FLT3 receptor activity and phosphorylation a sandwich ELISA method was developed similar to those developed for other RTKs (see Sadick, M D, Sliwkowski, M X, Nuijens, A, Bald, L, Chiang, N, Lofgren, J A, Wong W L T. Analysis of Heregulin-Induced ErbB2 Phosphorylation with a High-Throughput Kinase Receptor Activation Enzyme-Linked Immunsorbent Assay, Analytical Biochemistry. 1996; 235:207-214 and Baumann C A, Zeng L, Donatelli R R, Maroney A C. Development of a quantitative, high-throughput cell-based enzyme-linked immunosorbent assay for detection of colony-stimulating factor-1 receptor tyrosine kinase inhibitors. J Biochem Biophys Methods. 2004; 60:69-79.). 200 μL of Baf3FLT3 cells (1×10^6/mL) were plated in 96 well dishes in RPMI 1640 with 0.5% serum and 0.01 ng/mL IL-3 for 16 hours prior to 1 hour compound or DMSO vehicle incubation. Cells were treated with 100 ng/mL Flt ligand (R&D Systems Cat# 308-FK) for 10 min. at 37° C. Cells were pelleted, washed and lysed in 100 ul lysis buffer (50 mM Hepes, 150 mM NaCl, 10% Glycerol, 1% Triton-X-100, 10 mM NaF, 1 mM EDTA, 1.5 mM MgCl2, 10 mM NaPyrophosphate) supplemented with phosphatase (Sigma Cat# P2850) and protease inhibitors (Sigma Cat #P8340). Lysates were cleared by centrifugation at 1000×g for 5 minutes at 4° C. Cell lysates were transferred to white wall 96 well microtiter (Costar #9018) plates coated with 50 ng/well anti-FLT3 antibody (Santa Cruz Cat# sc-480) and blocked with SeaBlock reagent (Pierce Cat#37527). Lysates were incubated at 4° C. for 2 hours. Plates were washed 3× with 200 ul/well PBS/0.1% Triton-X-100. Plates were then incubated with 1:8000 dilution of HRP-conjugated anti-phosphotyrosine antibody (Clone 4G10, Upstate Biotechnology Cat#16-105) for 1 hour at room temperature. Plates were washed 3× with 200 ul/well PBS/0.1% Triton-X-100. Signal detection with Super Signal Pico reagent (Pierce Cat#37070) was done according to manufacturer's instruction with a Berthold microplate luminometer. All data points are an average of triplicate samples. […] Inhibition and IC50 data analysis was done with GraphPad Prism using a non-linear regression fit with a multiparamater, sigmoidal dose-response (variable slope) equation.

SMILES	IC50 [nM]
CCNC(=O)NCCO/N=C/c1c(N)ncnc1N1CCC(NC(=O)Nc2ccc(C(C)C)cc2)C1 (centres unmarked) [Number 28, 1-[1-(6-Amino-5-{[2-(3-ethyl-ureido)-ethoxyimino]-methyl}-pyrimidin-4-yl)-pyrrolidin-3-yl]-3-(4-isopropyl-phenyl)-urea]	2300
CC(C)c1ccc(NC(=O)NC2CCN(c3ncnc(N)c3/C=N/OCC(=O)N3CCOCC3)C2)cc1 (centres unmarked) [Number 29, 1-(1-{6-Amino-5-[(2-morpholin-4-yl-2-oxo-ethoxyimino)-methyl]-pyrimidin-4-yl}-pyrrolidin-3-yl)-3-(4-isopropyl-phenyl)-urea]	2400
